Measured values from patent US8658604B2, “Template-fixed beta-hairpin peptidomimetics with protease inhibitory activity” (Polyphor Ltd, priority 2005, dated 2014).
Where a SMILES comes first, the peptide text is derived from it.

Key:
[1] = target: Chymotrypsin, from human pancreas (Homo sapiens, UniProt P17538); test: Enzymatic assay, chymotrypsin
[2] = target: T1, Elastase from human neutrophils (Homo sapiens, UniProt P08246); test: Enzymatic assay, elastase; conditions: Elastase IC50
T1 sequence (P08246 30-267): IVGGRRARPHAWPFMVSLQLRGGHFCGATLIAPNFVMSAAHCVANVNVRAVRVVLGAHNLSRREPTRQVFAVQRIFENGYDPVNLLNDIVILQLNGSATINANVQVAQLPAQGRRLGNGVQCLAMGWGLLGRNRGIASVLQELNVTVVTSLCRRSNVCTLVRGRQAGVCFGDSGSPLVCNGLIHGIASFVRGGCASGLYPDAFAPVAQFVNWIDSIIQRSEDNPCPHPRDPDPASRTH

[3] = test system: Tryptase, from human lung; test: Enzymatic assay, tryptase; conditions: at 100 μM
[4] = target: Trypsin, from human pancreas (Homo sapiens, UniProt P07477); test: Enzymatic assay, trypsin

Sequence of Chymotrypsin, from human pancreas (P17538 19-263): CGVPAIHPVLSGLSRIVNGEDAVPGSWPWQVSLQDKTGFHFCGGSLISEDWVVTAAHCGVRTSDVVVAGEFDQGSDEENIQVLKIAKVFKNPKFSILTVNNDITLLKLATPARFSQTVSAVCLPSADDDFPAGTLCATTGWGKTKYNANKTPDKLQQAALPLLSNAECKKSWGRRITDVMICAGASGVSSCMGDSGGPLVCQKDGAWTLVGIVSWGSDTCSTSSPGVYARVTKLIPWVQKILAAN

## CCCC[C@@H]1NC(=O)[C@@H]2CCCN2C(=O)[C@H]2CCCN2C(=O)[C@H](Cc2ccc(O)cc2)NC(=O)[C@@H]2CSSC[C@H](NC1=O)C(=O)N[C@@H]([C@@H](C)O)C(=O)N[C@@H](C)C(=O)N[C@@H](CO)C(=O)N[C@@H](CC1CCCCC1)C(=O)N1CCC[C@H]1C(=O)N1CCC[C@H]1C(=O)N[C@@H](CCC(N)=O)C(=O)N2 [Ex. 82] (HELM PEPTIDE1{[Nle].C.T.A.S.[Cha].P.P.Q.C.Y.[dP].P}$PEPTIDE1,PEPTIDE1,2:R3-10:R3|PEPTIDE1,PEPTIDE1,1:R1-13:R2$$$V2.0)
[1]
  IC50: 0.0729 µM
[2]
  IC50: 0.018 µM
[3]
  Tryptase at 100 μM %: 44.5%

## CCCC[C@@H]1NC(=O)[C@@H]2CCCN2C(=O)[C@H]2CCCN2C(=O)[C@H](Cc2ccc(O)cc2)NC(=O)[C@@H]2CSSC[C@H](NC1=O)C(=O)N[C@@H]([C@@H](C)O)C(=O)N[C@@H](C)C(=O)N[C@@H](CO)C(=O)N[C@@H]([C@@H](C)CC)C(=O)N1CCC[C@H]1C(=O)N1CCC[C@H]1C(=O)N[C@@H](CCC(N)=O)C(=O)N2 [Ex. 179] (HELM PEPTIDE1{[Nle].C.T.A.S.I.P.P.Q.C.Y.[dP].P}$PEPTIDE1,PEPTIDE1,2:R3-10:R3|PEPTIDE1,PEPTIDE1,1:R1-13:R2$$$V2.0)
[1]
  Chymotrypsin at 100 μM %: 76.0%
[2]
  IC50: 0.05 µM
[3]
  Tryptase At 100 μM %: 0%
[4]
  IC50: > 100 µM

## CCCC[C@@H]1NC(=O)[C@@H]2CCCN2C(=O)[C@H]2CCCN2C(=O)[C@H](c2ccccc2)NC(=O)[C@@H]2CSSC[C@H](NC1=O)C(=O)N[C@@H]([C@@H](C)O)C(=O)N[C@@H](C)C(=O)N[C@@H](CO)C(=O)N[C@@H]([C@@H](C)CC)C(=O)N1CCC[C@H]1C(=O)N1CCC[C@H]1C(=O)N[C@@H](CCC(N)=O)C(=O)N2 [Ex. 136] (HELM PEPTIDE1{[Nle].C.T.A.S.I.P.P.Q.C.[Phg].[dP].P}$PEPTIDE1,PEPTIDE1,2:R3-10:R3|PEPTIDE1,PEPTIDE1,1:R1-13:R2$$$V2.0)
[1]
  Chymotrypsin at 100 μM %: 67.9%
[3]
  Tryptase At 100 μM %: 0%

## CCCC[C@@H]1NC(=O)[C@@H]2CCCN2C(=O)[C@H]2CCCN2C(=O)[C@H](Cc2ccccc2)NC(=O)[C@@H]2CSSC[C@H](NC1=O)C(=O)N[C@@H]([C@@H](C)O)C(=O)N[C@@H](C)C(=O)N[C@@H](CO)C(=O)N[C@@H]([C@@H](C)CC)C(=O)N1CCC[C@H]1C(=O)N1CCC[C@H]1C(=O)N[C@@H](CCC(N)=O)C(=O)N2 [Ex. 137] (HELM PEPTIDE1{[Nle].C.T.A.S.I.P.P.Q.C.F.[dP].P}$PEPTIDE1,PEPTIDE1,2:R3-10:R3|PEPTIDE1,PEPTIDE1,1:R1-13:R2$$$V2.0)
[1]
  Chymotrypsin at 100 μM %: 68.7%
[3]
  Tryptase At 100 μM %: 5%
